The target of assay [1] is Dual specificity tyrosine-phosphorylation-regulated kinase 1A (Rattus norvegicus, UniProt Q63470). The experiment in a line: Inhibition of rat recombinant DYRK1A-GST expressed in Escherichia coli using KKISGRLSPIMTEQ as substrate.
Assay [2] is described as follows: Inhibition of porcine brain CK1delta/epsilon using RRKHAAIGpSAYSITA as substrate. The arrangement: species or system Sus scrofa.
Assay [3] addresses Glycogen synthase kinase-3 (Sus scrofa, UniProt B2LUN4+I6LNT8). Put plainly: Inhibition of porcine brain GSK3alpha/beta using GS-1 as substrate.
Assay [4] has as its target Cyclin-dependent kinase 5/CDK5 activator 1 (Homo sapiens, UniProt Q00535). The experiment in a line: Inhibition of human recombinant CDK5/p25 after 30 mins by scintillation counting. It counts as protein-complex assay.
In assay [5] the target is Dual specificity protein kinase CLK1 (Homo sapiens, UniProt P49759).
Dual specificity protein kinase CLK1, sequence (P49759 whole entry): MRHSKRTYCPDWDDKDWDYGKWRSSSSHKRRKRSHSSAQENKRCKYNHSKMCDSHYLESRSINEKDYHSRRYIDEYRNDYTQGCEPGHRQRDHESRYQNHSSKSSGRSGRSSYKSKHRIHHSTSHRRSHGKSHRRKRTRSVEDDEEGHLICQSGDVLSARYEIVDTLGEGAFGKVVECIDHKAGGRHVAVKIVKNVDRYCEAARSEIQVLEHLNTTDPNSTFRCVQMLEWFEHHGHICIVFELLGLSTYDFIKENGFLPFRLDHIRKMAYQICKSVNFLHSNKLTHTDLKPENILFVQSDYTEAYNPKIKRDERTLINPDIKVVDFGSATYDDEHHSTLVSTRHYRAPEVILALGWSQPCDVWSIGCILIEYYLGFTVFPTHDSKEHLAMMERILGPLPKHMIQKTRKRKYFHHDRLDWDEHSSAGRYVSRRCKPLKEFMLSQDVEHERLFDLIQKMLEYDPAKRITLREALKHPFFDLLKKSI

Cyclin-dependent kinase 5/CDK5 activator 1, sequence (Q00535 whole entry): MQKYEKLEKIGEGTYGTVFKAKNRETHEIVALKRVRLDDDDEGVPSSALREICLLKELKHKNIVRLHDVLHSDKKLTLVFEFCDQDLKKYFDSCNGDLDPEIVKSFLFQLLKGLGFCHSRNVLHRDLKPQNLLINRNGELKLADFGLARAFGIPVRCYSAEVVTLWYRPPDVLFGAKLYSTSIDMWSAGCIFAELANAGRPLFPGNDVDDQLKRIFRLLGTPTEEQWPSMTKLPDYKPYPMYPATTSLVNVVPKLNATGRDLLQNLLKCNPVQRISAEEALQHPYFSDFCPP
Cyclin-dependent kinase 5/CDK5 activator 1, sequence (Q15078 whole entry, further chain): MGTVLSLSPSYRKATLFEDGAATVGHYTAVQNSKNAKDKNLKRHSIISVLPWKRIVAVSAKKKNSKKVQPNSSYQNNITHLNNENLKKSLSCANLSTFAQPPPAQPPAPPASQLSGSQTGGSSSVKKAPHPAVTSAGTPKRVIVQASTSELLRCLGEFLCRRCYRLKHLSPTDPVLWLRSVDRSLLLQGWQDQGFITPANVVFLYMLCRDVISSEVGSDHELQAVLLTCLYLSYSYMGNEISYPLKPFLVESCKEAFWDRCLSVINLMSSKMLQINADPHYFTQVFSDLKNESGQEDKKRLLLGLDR

Regarding `COc1ccc2c(c1)sc1c(Nc3ccc(N(C)C)cc3)ncnc12`, the IC50 (in general, the concentration that gives 50% inhibition) is 0.66 µM in assay [1]; above 10 µM in assay [2]; above 10 µM in assay [3]; above 10 µM in assay [4]; 0.79 µM in assay [5].
Turning to `COc1ccc2c(c1)oc1c(Nc3cc(Cl)cc(Cl)c3)ncnc12`, the IC50 in assay [1], in assay [2], in assay [3], in assay [4] and in assay [5] was above 10 µM each time.
On to `COc1ccc2c(c1)oc1c(Nc3ccc(Cl)cc3Cl)ncnc12`, for which the IC50 in assay [1] was 3.1 µM; in assay [2], above 10 µM; in assay [3] it was above 10 µM; in assay [4] it was above 10 µM; in assay [5], above 10 µM.
For `COc1ccc2c(c1)oc1c(Nc3ccc(F)c(Cl)c3)ncnc12`, the IC50 in assay [1], in assay [2], in assay [3], in assay [4] and in assay [5] was above 10 µM each time.
On to `COc1ccc2c(c1)oc1c(Nc3ccc(Cl)cc3F)ncnc12`, for which the IC50 in assay [1], in assay [2], in assay [3], in assay [4] and in assay [5] was above 10 µM in each case.
For `COc1ccc2c(c1)oc1c(Nc3ccc(F)cc3F)ncnc12`, the IC50 in assay [1], in assay [2], in assay [3], in assay [4] and in assay [5] was above 10 µM each time.
Regarding `COc1ccc2c(c1)oc1c(Nc3ccc(Br)cc3F)ncnc12`, the IC50 in assay [1], in assay [2], in assay [3], in assay [4] and in assay [5] was above 10 µM in each case.
Take `COc1ccc(Nc2ncnc3c2oc2cc(OC)ccc23)c(F)c1`: the IC50 in assay [1], in assay [2], in assay [3], in assay [4] and in assay [5] was above 10 µM throughout.
Take `COc1ccc2c(c1)oc1c(Nc3ccc(C#N)cc3)ncnc12`: the IC50 in assay [1], in assay [2], in assay [3], in assay [4] and in assay [5] was above 10 µM throughout.
For the compound `COc1ccc2c(c1)oc1c(Nc3cccc(C(F)(F)F)c3)ncnc12`, the IC50 in assay [1], in assay [2], in assay [3], in assay [4] and in assay [5] was above 10 µM in each case.
Turning to `COc1ccc2c(c1)oc1c(Nc3ccc(N(C)C)cc3)ncnc12`, the IC50 in assay [1], in assay [2], in assay [3], in assay [4] and in assay [5] was above 10 µM throughout.
Consider `COc1ccc2c(c1)sc1c(N)ncnc12`, for which the IC50 in assay [1], in assay [2], in assay [3], in assay [4] and in assay [5] was above 10 µM throughout.
For `COc1ccc2c(c1)sc1c(Nc3ccccc3)ncnc12`, the IC50 in assay [1], in assay [2], in assay [3], in assay [4] and in assay [5] was above 10 µM in each case.
For the compound `COc1ccc2c(c1)sc1c(Nc3ccc(C)cc3)ncnc12`, the IC50 in assay [1], in assay [2], in assay [3], in assay [4] and in assay [5] was above 10 µM in each case.
For `COc1ccc2c(c1)sc1c(Nc3cccc(C)c3)ncnc12`, the IC50 in assay [1] was 6.1 µM; in assay [2], above 10 µM; in assay [3], above 10 µM; in assay [4], above 10 µM; in assay [5] it was above 10 µM.
Regarding `COc1ccc(Nc2ncnc3c2sc2cc(OC)ccc23)cc1`, the IC50 is 7.1 µM in assay [1]; above 10 µM in assay [2]; above 10 µM in assay [3]; above 10 µM in assay [4]; above 10 µM in assay [5].
For `COc1ccc2c(c1)sc1c(Nc3ccc(OC)c(OC)c3)ncnc12`, the IC50 is 0.93 µM in assay [1]; above 10 µM in assay [2]; above 10 µM in assay [3]; above 10 µM in assay [4]; 2.8 µM in assay [5].
Consider `COc1cc(Nc2ncnc3c2sc2cc(OC)ccc23)cc(OC)c1`, for which the IC50 in assay [1] is 3.9 µM; in assay [2], above 10 µM; in assay [3], above 10 µM; in assay [4] it was above 10 µM; in assay [5], 5.1 µM.
As to `COc1ccc2c(c1)sc1c(Nc3cc(OC)c(OC)c(OC)c3)ncnc12`, the IC50 in assay [1], in assay [2], in assay [3], in assay [4] and in assay [5] was above 10 µM in each case.
With `COc1ccc2c(c1)sc1c(Nc3ccc4c(c3)OCO4)ncnc12`, the IC50 in assay [1], in assay [2], in assay [3], in assay [4] and in assay [5] was above 10 µM in each case.
Turning to `COc1ccc2c(c1)sc1c(Nc3ccc4c(c3)OCCO4)ncnc12`, the IC50 in assay [1] is 0.5 µM; in assay [2], above 10 µM; in assay [3], above 10 µM; in assay [4], above 10 µM; in assay [5], 0.68 µM.
As for `COc1ccc2c(c1)sc1c(Nc3ccc(F)cc3)ncnc12`, the IC50 in assay [1], in assay [2], in assay [3], in assay [4] and in assay [5] was above 10 µM throughout.
For the compound `COc1ccc2c(c1)sc1c(Nc3ccc(Br)cc3)ncnc12`, the IC50 in assay [1], in assay [2], in assay [3], in assay [4] and in assay [5] was above 10 µM in each case.
Take `COc1ccc2c(c1)sc1c(Nc3ccc(Cl)cc3)ncnc12`: the IC50 in assay [1], in assay [2], in assay [3], in assay [4] and in assay [5] was above 10 µM throughout.
As for `COc1ccc2c(c1)sc1c(Nc3cccc(Cl)c3)ncnc12`, the IC50 in assay [1], in assay [2], in assay [3], in assay [4] and in assay [5] was above 10 µM each time.
Regarding `COc1ccc2c(c1)sc1c(Nc3ccccc3Cl)ncnc12`, the IC50 in assay [1] is 0.61 µM; in assay [2], above 10 µM; in assay [3], above 10 µM; in assay [4] it was above 10 µM; in assay [5], 3.1 µM.
On to `COc1ccc2c(c1)sc1c(Nc3ccc(Cl)c(Cl)c3)ncnc12`, for which the IC50 in assay [1] is 2 µM; in assay [2], above 10 µM; in assay [3], above 10 µM; in assay [4], above 10 µM; in assay [5] it was 6.1 µM.
In the case of `COc1ccc2c(c1)sc1c(Nc3cc(Cl)cc(Cl)c3)ncnc12`, the IC50 in assay [1] was 8.1 µM; in assay [2], above 10 µM; in assay [3] it was above 10 µM; in assay [4] it was above 10 µM; in assay [5], above 10 µM.
In the case of `COc1ccc2c(c1)sc1c(Nc3ccc(Cl)cc3Cl)ncnc12`, the IC50 in assay [1] is 1.6 µM; in assay [2] it was above 10 µM; in assay [3], above 10 µM; in assay [4], above 10 µM; in assay [5] it was above 10 µM.
Turning to `COc1ccc2c(c1)sc1c(Nc3ccc(F)c(Cl)c3)ncnc12`, the IC50 in assay [1], in assay [2], in assay [3], in assay [4] and in assay [5] was above 10 µM throughout.
As for `COc1ccc2c(c1)sc1c(Nc3ccc(Cl)cc3F)ncnc12`, the IC50 in assay [1], in assay [2], in assay [3], in assay [4] and in assay [5] was above 10 µM throughout.
Consider `COc1ccc2c(c1)sc1c(Nc3ccc(F)cc3F)ncnc12`, for which the IC50 in assay [1] is 0.93 µM; in assay [2], 3.9 µM; in assay [3] it was above 10 µM; in assay [4] it was above 10 µM; in assay [5], 1.6 µM.
`COc1ccc2c(c1)sc1c(Nc3ccc(Br)cc3F)ncnc12`: the IC50 in assay [1] was 0.71 µM; in assay [2], above 10 µM; in assay [3], above 10 µM; in assay [4] it was above 10 µM; in assay [5] it was 2.3 µM.
As for `COc1ccc(Nc2ncnc3c2sc2cc(OC)ccc23)c(F)c1`, the IC50 in assay [1] was 0.71 µM; in assay [2], above 10 µM; in assay [3], above 10 µM; in assay [4], above 10 µM; in assay [5], above 10 µM.
On to `COc1ccc2c(c1)sc1c(Nc3ccc(C#N)cc3)ncnc12`, for which the IC50 is 2.6 µM in assay [1]; above 10 µM in assay [2]; above 10 µM in assay [3]; above 10 µM in assay [4]; 6.8 µM in assay [5].
Turning to `COc1ccc2c(c1)sc1c(Nc3cccc(C(F)(F)F)c3)ncnc12`, the IC50 in assay [1], in assay [2], in assay [3], in assay [4] and in assay [5] was above 10 µM throughout.
Consider `COc1ccc2c(c1)oc1c(Nc3ccc(C)cc3)ncnc12`, for which the IC50 in assay [1], in assay [2], in assay [3] and in assay [4] was above 10 µM throughout.
Turning to `COc1cc(Nc2ncnc3c2oc2cc(OC)ccc23)cc(OC)c1`, the IC50 in assay [1], in assay [2], in assay [3] and in assay [4] was above 10 µM each time.
Turning to `COc1ccc2c(c1)[nH]c1c(C)nccc12` [HARMINE], the IC50 in assay [2] is 1.5 µM; in assay [3], above 10 µM.

The values are drawn from ChEMBL document CHEMBL2311417, “Synthesis and biological evaluation of N-aryl-7-methoxybenzo[b]furo[3,2-d]pyrimidin-4-amines and their N-arylbenzo[b]thieno[3,2-d]pyrimidin-4-amine analogues as dual inhibitors of CLK1 and DYRK1A kinases” (Eur J Med Chem, 2013).
